The target in one assay is STK4 (MST1) (Homo sapiens (Human), UniProt Q13043). The experiment in a line: Z-lyte biochemical IC50 assay (Invitrogen). As to conditions: ATP concentration matched the Km. The procedure:
(§1) STK4 (MST1), STK3 (MST2); STK24 (MST3) and MST4 Assays
(§2) Biochemical IC50s were measured at Invitrogen using Z-lyte technology. Briefly, for STK4, the 2×STK4 (MST1)/Ser/Thr 07 mixture was prepared in 50 mM HEPES pH 7.5, 0.01% BRIJ35, 10 mM MgCl2, 1 mM EGTA. The final 10 μL Kinase Reaction consisted of 6.25-160 ng STK4 (MST1) and 2 μM Ser/Thr 07 in 50 mM HEPES pH 7.5, 0.01% BRIJ-35, 10 mM MgCl2, 1 mM EGTA. After the 1 hour Kinase Reaction incubation, 5 μL of a 1:100000 dilution of Development Reagent A was added. Compounds were screened in a 10 point titration with 3-fold serial dilutions starting at a concentration of 10 μM. The biochemical IC50s against other STK family members were measured similarly. The ATP concentration used matched the Km for each kinase.

A further assay deals with STK24 (MST3) (Homo sapiens (Human), UniProt Q9Y6E0). The experiment in a line: Z-lyte biochemical IC50 assay (Invitrogen). As to conditions: ATP concentration matched the Km. The procedure:
as §1, §2

The next assay concerns the target STK3 (MST2) (Homo sapiens (Human), UniProt Q13188). The experiment in a line: Z-lyte biochemical IC50 assay (Invitrogen). The following applies: ATP concentration matched the Km. On the procedure:
as §1, §2

The next assay concerns the target STK4 (Homo sapiens (Human), UniProt Q13043). The assay can be described thus: KiNativ Platform experiment, MM.1S cell lysates, biotinylated ATP, Western blot. The format is binding. As to conditions: 10 μM, 20 minutes, then biotinylated ATP 10 minutes. On the procedure: FIG. 32A and FIG. 32B show the results of a KiNativ™ Platform experiment obtained after incubating MM.1S cell lysates with 10 μM of the indicated compounds for 20 minutes, followed by incubation with biotinylated ATP for 10 minutes. FIG. 32A is a graph showing the ratio of MEK2 to STK4 derived from the Western blotting band signals in FIG. 32B, in MM.1S cell lysates treated with 10 μM of Compound I-9, I-13, or I-27 or KIN001-305 followed by incubation with biotinylated ATP. FIG. 32B is a Western blot showing the levels of STK4 and MEK2 in MM.1S cells treated with 10 μM of Compound I-9, I-13, or I-27 or KIN001-305 followed by incubation with biotinylated ATP.

The test system of another assay is YAP1. The assay can be described thus: Western blotting. The format is cell-based. The following applies: H929 and MM.1S cells, 3 μM and 10 μM, 72 hours. The source says: (§3) MM.1S, KMS20 and H929 cells are counted, diluted and plated. Cells are then […] with DMSO or different concentration of a compound of the present application for 6 hrs, 24 hrs or 48 hrs. MM cells are then collected and centrifuged at RT and the pellets are re-suspended in lysis buffer. Cell lysates are subjected to sodium dodecyl sulfate-polyacrylamide gel electrophoresis SDS-PAGE, transferred to nitrocellulose membranes, and immunoblotted with different antibodies.
(§4) MM.1S, KMS20 and H929 cells were counted, diluted and plated in six-well plates to a final concentration of 500,000 cells/well. Cells were then […] with DMSO or different concentration of a compound of the present application for 6 hrs, 24 hrs or 48 hrs. MM cells were then collected and centrifuged for 5 min, 1300 rpm at RT. The pellets were re-suspended in lysis buffer Laemli 1× (Laemli 5×: SDS 10%, DTT 500 mM, Tris-HCl pH6.8 0.4M, BromoFenol Blue, Glycerol 50%). Cell lysates were subjected to sodium dodecyl sulfate-polyacrylamide gel electrophoresis SDS-PAGE, transferred to nitrocellulose membranes, and immunoblotted with different antibodies: YAP1 (#4912), p-YAP1 (S127) (#13008), LATS1 (#9153), p-LATS1 (Thr1079) (#8654), MOB1 (#3863), p-MOB1 (Thr12) (#8843), p-MST1/p-MST2 (Thr183/Thr180) (#3681), p21 (#2947), PARP (#9532), ERK, STAT, and GAPDH (#5174) from Cell Signaling, Beverly, Mass., United States; STK4 (ab57836) (from Abcam, Cambridge, Mass., United States); PUMA (sc-28226), BAX (sc-20067), from Santa Cruz, Dallas, Tex., United States; β-actin from Sigma-Aldrich (St. Louis, Mo., United States). All antibodies were diluted 1:500, except for β-actin antibody (1:50,000 dilution). In FIG. 8, H929 cells were treated with Compound I-9 or DMSO at 1 μM concentration for 24 hours. Lysates were then obtained and immunoblot was performed using antibodies against PARP, YAP1, PUMA, BAX. p21, and GAPDH.
In FIG. 10A, H929 and MM.1S cells were treated with Compound I-1 or DMSO at 1 μM and 10 μM concentrations for 16 hours. Lysates were then obtained and immunoblot was performed using antibodies against YAP1 and GAPDH.
In FIG. 12, H929 and MM. 1S cells were treated with Compound I-9, Compound I-12, or DMSO at 3 μM and 10 μM concentrations for 72 hours. Lysates were then obtained and immunoblot was performed using antibodies against YAP1 and Actin as loading control.
FIG. 13 show a Western blot of H929 and MM.1S cells treated with Compound I-13, Compound I-28, Compound I-9, KIN001-305, BMS536924, or DMSO at 1 μM concentration for 16 hours. Lysates were then obtained and immunoblot was performed using antibodies against YAP1, Actin, and pMOB1.
Background: Immunoblotting shows a protein as a band on a membrane.

A further assay has as its system p-MOB1. The experiment in a line: Western blotting. As to conditions: MM.1S cells, 1 μM and 10 μM, 6 hours. It counts as cell-based.
From the text: as §3, §4
In FIGS. 26A-26J, MM.1S cells were treated with Compound I-6, Compound I-31, Compound I-30, Compound I-22, Compound I-27, Compound I-1, Compound I-23, Compound I-13, Compound I-28, Compound I-9, or DMSO at 1 μM and 10 μM concentrations for 6 hours. Lysates were then obtained and immunoblot was performed using antibodies against MOB1 and p-MOB1. As shown from FIGS. 26A-26J, Compound I-22, Compound I-27, Compound I-1, Compound I-23, Compound I-13, Compound I-28, and Compound I-9 reduced PMOB1 levels at different concentrations.

We go through 17 molecules from patent US10710978B2, “STK4 inhibitors for treatment of hematologic malignancies” (Dana-Farber Cancer Institute, Inc., priority 2015, dated 2020).

Molecules are shown by their SMILES. Where “and” joins values, the source holds several entries; their conditions need not be identical. Identical values can stand only once.

Sequence of STK3 (MST2) (Q13188 whole entry): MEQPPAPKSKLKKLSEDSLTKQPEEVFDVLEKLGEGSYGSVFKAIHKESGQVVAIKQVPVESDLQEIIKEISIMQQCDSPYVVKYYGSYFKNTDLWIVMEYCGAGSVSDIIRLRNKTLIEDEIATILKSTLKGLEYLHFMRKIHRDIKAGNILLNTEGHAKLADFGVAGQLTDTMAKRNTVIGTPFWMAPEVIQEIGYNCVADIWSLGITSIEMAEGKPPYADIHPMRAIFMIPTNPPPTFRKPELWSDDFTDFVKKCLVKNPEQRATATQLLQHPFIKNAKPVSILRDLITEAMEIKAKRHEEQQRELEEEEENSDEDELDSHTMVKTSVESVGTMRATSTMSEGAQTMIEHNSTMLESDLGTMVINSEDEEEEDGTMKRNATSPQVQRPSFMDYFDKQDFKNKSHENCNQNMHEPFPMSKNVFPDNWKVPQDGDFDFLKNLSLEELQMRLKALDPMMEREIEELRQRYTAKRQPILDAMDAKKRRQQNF
Sequence of STK4 (MST1) (Q13043 whole entry): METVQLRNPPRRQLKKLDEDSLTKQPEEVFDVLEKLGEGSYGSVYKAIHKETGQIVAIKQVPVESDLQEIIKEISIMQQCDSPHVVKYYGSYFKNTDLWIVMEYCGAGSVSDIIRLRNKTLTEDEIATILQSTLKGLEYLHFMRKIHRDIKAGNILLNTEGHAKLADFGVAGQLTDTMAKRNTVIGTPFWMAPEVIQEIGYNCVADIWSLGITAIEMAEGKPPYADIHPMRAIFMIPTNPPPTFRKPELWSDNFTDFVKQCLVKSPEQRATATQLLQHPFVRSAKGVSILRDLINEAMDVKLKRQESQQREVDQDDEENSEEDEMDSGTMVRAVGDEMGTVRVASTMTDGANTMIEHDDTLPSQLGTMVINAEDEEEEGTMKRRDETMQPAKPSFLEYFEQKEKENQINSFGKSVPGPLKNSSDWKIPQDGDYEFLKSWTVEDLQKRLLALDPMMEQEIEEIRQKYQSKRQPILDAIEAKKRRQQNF
Sequence of STK24 (MST3) (Q9Y6E0 whole entry): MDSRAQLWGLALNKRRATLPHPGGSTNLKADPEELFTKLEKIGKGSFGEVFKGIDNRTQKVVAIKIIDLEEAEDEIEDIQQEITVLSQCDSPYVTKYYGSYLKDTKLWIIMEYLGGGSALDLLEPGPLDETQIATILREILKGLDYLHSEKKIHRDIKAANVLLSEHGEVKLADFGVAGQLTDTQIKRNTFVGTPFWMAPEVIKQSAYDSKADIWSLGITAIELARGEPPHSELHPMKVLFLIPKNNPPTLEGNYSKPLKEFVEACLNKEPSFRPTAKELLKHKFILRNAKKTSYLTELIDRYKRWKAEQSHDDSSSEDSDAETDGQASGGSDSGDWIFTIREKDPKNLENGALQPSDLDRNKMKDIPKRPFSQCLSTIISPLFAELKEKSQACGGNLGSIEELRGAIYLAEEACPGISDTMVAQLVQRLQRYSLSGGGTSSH
Sequence of STK4 (Q13043 whole entry): as the sequence (Q13043 whole entry) above

One may read the IC50 as the concentration that gives 50% inhibition. Lower therefore signals greater potency in that assay. For the molecule `Nc1ncc(-c2cnccc2F)cc1-c1ccc2c(c1)CCNC2=O` [Compound I-5, 6-(6-amino-4′-fluoro-[3,3′-bipyridin]-5-yl)-3,4-dihydroisoquinolin-1(2H)-one], the results for the IC50 against STK4 (MST1) and against STK24 (MST3) were 200 to 900 nM and over 900 nM, respectively.

`N#Cc1cccc(-c2cnc(N)c(-c3ccc4c(c3)CCNC4=O)c2)c1` [Compound I-75, 3-(6-amino-5-(1-oxo-1,2,3,4-tetrahydroisoquinolin-6-yl)pyridin-3-yl)benzonitrile]: the IC50 against STK3 (MST2) was in the range of 40 to 200 nM; against STK4 (MST1), 40 to 200 nM; against STK24 (MST3), 200 to 900 nM.

In the case of `COc1cc(S(=O)(=O)N(C)C2CC2)ccc1-c1cnc(N)c(-c2ccc3c(c2)CCNC3=O)c1` [Compound I-72, 4-(6-amino-5-(1-oxo-1,2,3,4-tetrahydroisoquinolin-6-yl)pyridin-3-yl)-N-cyclopropyl-3-methoxy-N-methylbenzenesulfonamide], the half-inhibitory concentration (IC50) was under 40 nM on STK3 (MST2), under 40 nM on STK4 (MST1) and 40 to 200 nM at STK24 (MST3).

For `Nc1ncc(-c2scnc2Cl)cc1-c1ccc2c(c1)CCNC2=O` [Compound I-76, 6-(2-amino-5-(4-chlorothiazol-5-yl)pyridin-3-yl)-3,4-dihydroisoquinolin-1(2H)-one], the IC50 was 40 to 200 nM against STK3 (MST2); < 40 nM and 40 to 200 nM at STK4 (MST1); over 900 nM on STK24 (MST3).

Turning to `CN(C1CC1)S(=O)(=O)c1ccc(-c2cnc(N)c(-c3ccc4c(c3)CCNC4=O)c2)cc1` [KIN001-305, reference compound], on STK4, the “affinity for STK4, as of ATP binding” value is “highest affinity”. This molecule registered a half-maximal inhibitory concentration (IC50) against STK4 (MST1) of under 40 nM.

On to `CCNC(=O)c1ccc(F)c(-c2cnc(N)c(-c3ccc4c(c3)CCNC4=O)c2)c1` [Compound I-6, 3-(6-amino-5-(1-oxo-1,2,3,4-tetrahydroisoquinolin-6-yl)pyridin-3-yl)-N-ethyl-4-fluorobenzamide], for which the IC50 against STK4 (MST1) and against STK24 (MST3) was over 900 nM each time.

As to `Nc1ncc(-c2cc([N+](=O)[O-])ccc2Cl)cc1-c1ccc2c(c1)CCNC2=O` [Compound I-4, 6-(2-amino-5-(2-chloro-5-nitrophenyl)pyridin-3-yl)-3,4-dihydroisoquinolin-1(2H)-one], the half-maximal inhibitory concentration (IC50) against STK4 (MST1) and against STK24 (MST3) was over 900 nM in each case.

For `Nc1ncc(-c2cccc([N+](=O)[O-])c2)cc1-c1ccc2c(c1)CCNC2=O` [Compound I-2, 6-(2-amino-5-(3-nitrophenyl)pyridin-3-yl)-3,4-dihydroisoquinolin-1(2H)-one], the IC50 against STK4 (MST1) was under 40 nM; against STK24 (MST3) it was over 900 nM.

Consider `Nc1ncc(-c2ccccc2F)cc1-c1ccc2c(c1)CCNC2=O` [Compound I-3, 6-(2-amino-5-(2-fluorophenyl)pyridin-3-yl)-3,4-dihydroisoquinolin-1(2H)-one], for which the figures for the IC50 against STK4 (MST1) and against STK24 (MST3) were 40 to 200 nM and over 900 nM, respectively.

In the case of `Nc1ncc(-c2cccc(S(=O)(=O)NC3CC3)c2)cc1-c1ccc2c(c1)CCNC2=O` [Compound I-12, 3-(6-amino-5-(1-oxo-1,2,3,4-tetrahydroisoquinolin-6-yl)pyridin-3-yl)-N-cyclopropylbenzenesulfonamide], the YAP1 levels result in the assay on YAP1 is listed as “upregulation”. In addition, the IC50 lay within 40 to 200 nM against STK3 (MST2), 40 to 200 nM against STK4 (MST1) and 200 to 900 nM against STK24 (MST3).

Take `Nc1ncc(-c2cc([N+](=O)[O-])c(Cl)cc2F)cc1-c1ccc2c(c1)CCNC2=O` [Compound I-22, 6-(2-amino-5-(4-chloro-2-fluoro-5-nitrophenyl)pyridin-3-yl)-3,4-dihydroisoquinolin-1(2H)-one]: the IC50 on STK3 (MST2) and against STK4 (MST1) was 40 to 200 nM throughout. In addition, in the assay on p-MOB1, the PMOB1 levels result was “reduced”.

On to `Nc1ncc(-c2cc3c(cc2F)OCC(=O)N3)cc1-c1ccc2c(c1)CCNC2=O` [Compound I-23, 6-(6-amino-5-(1-oxo-1,2,3,4-tetrahydroisoquinolin-6-yl)pyridin-3-yl)-7-fluoro-2H-benzo[b][1,4]oxazin-3(4H)-one], for which the IC50 against STK3 (MST2) was 40 to 200 nM; on STK4 (MST1), under 40 nM. Further, the PMOB1 levels result in the assay on p-MOB1 is listed as “reduced”.

Turning to `Nc1ncc(-c2cc([N+](=O)[O-])c(NCc3ccccc3)cc2F)cc1-c1ccc2c(c1)CCNC2=O` [Compound I-27, 6-(2-amino-5-(4-(benzylamino)-2-fluoro-5-nitrophenyl)pyridin-3-yl)-3,4-dihydroisoquinolin-1(2H)-one], at STK4, the “affinity for STK4, as of ATP binding” value is listed as “highest affinity”. The molecule also came in with an IC50 against STK4 (MST1) of 40 to 200 nM. Moreover, the PMOB1 levels result with p-MOB1 is recorded as “reduced”.

Consider `CC(C)Oc1cc(NS(=O)(=O)C2CC2)ccc1-c1cnc(N)c(-c2ccc3c(c2)CCNC3=O)c1` [Compound I-67, N-(4-(6-amino-5-(1-oxo-1,2,3,4-tetrahydroisoquinolin-6-yl)pyridin-3-yl)-3-isopropoxyphenyl) cyclopropanesulfonamide], for which the IC50 against STK4 (MST1) was under 40 nM.

As to `Nc1ncc(-c2cc3scnc3cc2F)cc1-c1ccc2c(c1)CCNC2=O` [Compound I-73, 6-(2-amino-5-(5-fluorobenzo[d]thiazol-6-yl)pyridin-3-yl)-3,4-dihydroisoquinolin-1(2H)-one], at STK4 (MST1), the IC50 lay within 40 to 200 nM.

Molecule `C#Cc1cc(F)c(-c2cnc(N)c(-c3ccc4c(c3)CCNC4=O)c2)cc1[N+](=O)[O-]` [Compound I-45, 6-(2-amino-5-(4-ethynyl-2-fluoro-5-nitrophenyl)pyridin-3-yl)-3,4-dihydroisoquinolin-1(2H)-one] yielded an IC50 against STK4 (MST1) of 40 to 200 nM.

`CN(C1CC1)S(=O)(=O)c1ccc(-c2cnc(N)c(-c3ccc4c(c3)CNC4=O)c2)c(F)c1` [Compound I-74, 4-(6-amino-5-(1-oxoisoindolin-5-yl)pyridin-3-yl)-N-cyclopropyl-3-fluoro-N-methylbenzenesulfonamide]: the IC50 at STK3 (MST2) was under 40 nM; against STK4 (MST1) it was < 40 nM and 40 to 200 nM; against STK24 (MST3), over 900 nM.
